{
  "source": "patent US20100215759A1",
  "about": "(priority 2009, published 2010)",
  "key": {"old DBA/2J mice": {"tested_on": "old DBA/2J mice", "experiment": "Reduction of intraocular pressure (IOP) after application to the eye, TONOLab tonometer", "type": "in vivo", "settings": "for Intraocular Pressure Decrease: versus basal IOP", "source_text": "The main risk factor in the glaucoma is represented by the high intraocular pressure (IOP). See for instance: Libby R. T. et al., Vis Neurosci. 2005 Sep.-Oct., 22(5):637-48 and Tomida I. et al., Br. J. Opthalmol. 2004 May, 88(5):708-13.\nBy using the animal model of old DBA/2J mice (see above) it has been evaluated the efficacy of the compound obtained in example 3.1 in reducing the IOP. As said, this compound has a good affinity towards the CB1 receptors in vitro (example 4) and a CB1 agonist action in vivo (example 5). The intraocular pressure has been determined by a TONOLab Tonometer (Tiolat Oy), as reported by M. E. Pease et al. in J. Glaucoma, 2006 December, 15(6):512-519. The compound was dispersed in the commercial emulsion Tocrisolve™, (Tocris), at a concentration of […] and applied to the eye of old DBA/2J mice (8-10 month age; basal IOP comprised between 19.0 and 22.5 mmHg). The applied emulsion volumes were such that the compound doses resulted, respectively, of 100 μg or 50 μg. WIN 55212-2 was dispersed in Tocrisolve™at the concentration of 5 mg/ml and was the reference cannabinoidergic compound. The determination of the ocular pressure was carried out every 30 minutes up to two hours starting from the administration. The obtained results (average of 6 measurements at each time for experimental groups of 8-10 animals for group/dose) are reported in Table 3. IOP decrease was expressed in percent with respect to the basal value."}, "mice": {"tested_on": "mice", "experiment": "Hypothermia test in vivo (rectal temperature after i.p. administration)", "settings": "for Body Temperature: 40 mg/kg i.p.", "source_text": "It is known that the compounds having a cannabomimetic activity show in vivo the following effects: hypoactivity, hypothermia, analgesia and catalepsy (B. R. Martin et al., Pharmacol. Biochem. Behav.; 1991, 40, 471-478; P. B. Smith et al.; J. Pharmacol. Exp. Ther.; 1994, 270, 219-227). In order to display thermoregulating activity, the compounds acting towards the cannabinoidergic receptors must be able to pass the haematoencephalic barrier since the central site of said temperature regulating receptors is positioned in the preoptical front core of the hypothalamus (S. M. Rawls et al.; J. Pharmacol. Exp. Ther.; 2002, 303, 395-402). After treatment with CB1 agonist compounds passing the haemato-encephalic barrier, the cannabimimetic activity is evidenced by a reduction of the body temperature. CB1 antagonist compounds that pass the haemato-encephalic barrier, have no influence on the body temperature and show an antagonist activity towards the reference CB1 agonists as WIN 55.212-2, thus hindering the hypothermia induced by the latter.\nThe tests have been carried out in the experimental animal (mice) according to the indications of M. Rinaldi-Carmona et al. in FEBS Letters; 1994, 350, 240-244. Rectal temperature in mice was determined by an electronic thermometer inserted at a 2 mm depth. The measurements were carried out on mice acclimatized for one hour. […]\nThe experiment was carried out with the compound of example 3.1. Said compound was dispersed in a carrier formed of a physiological solution added with Tween 80 (3 drops). The so prepared samples were used for treating the animals at a dose of the compound of 40 mg/kg of body weight. The blank was the carrier.\nEach test was repeated on ten animals: the results obtained are therefore the average of the determinations made on ten animals."}, "[1]": {"settings": "50 μg to the eye in Tocrisolve, 30 minutes"}, "[2]": {"settings": "50 μg to the eye in Tocrisolve, 60 minutes"}, "[3]": {"settings": "50 μg to the eye in Tocrisolve, 90 minutes"}, "[4]": {"settings": "50 μg to the eye in Tocrisolve, 120 minutes"}, "[5]": {"settings": "100 μg to the eye in Tocrisolve, 30 minutes"}, "[6]": {"settings": "100 μg to the eye in Tocrisolve, 60 minutes"}, "[7]": {"settings": "100 μg to the eye in Tocrisolve, 90 minutes"}, "[8]": {"settings": "100 μg to the eye in Tocrisolve, 120 minutes"}},
  "data": [
    {"smiles": "CCOC(=O)c1nn(-c2ccc(S(N)(=O)=O)cc2)c2c1CCc1sccc1-2", "note": "[Compound (XA), 1-(4′-sulphonamidophenyl)-4,5-dihydro-1H-thieno[2,3-g]indazol-3-ethyl carboxylate]", "values": [
      {"measurement": "Intraocular Pressure Decrease", "setting": "old DBA/2J mice; [1]", "value": "−0.3", "unit": "%"},
      {"measurement": "Intraocular Pressure Decrease", "setting": "old DBA/2J mice; [2]", "value": "−0.2", "unit": "%"},
      {"measurement": "Intraocular Pressure Decrease", "setting": "old DBA/2J mice; [3]", "value": 0.0, "unit": "%"},
      {"measurement": "Intraocular Pressure Decrease", "setting": "old DBA/2J mice; [4]", "value": "−0.1", "unit": "%"},
      {"measurement": "Intraocular Pressure Decrease", "setting": "old DBA/2J mice; [5]", "value": 0.0, "unit": "%"},
      {"measurement": "Intraocular Pressure Decrease", "setting": "old DBA/2J mice; [6]", "value": "−0.2", "unit": "%"},
      {"measurement": "Intraocular Pressure Decrease", "setting": "old DBA/2J mice; [7]", "value": "−0.1", "unit": "%"},
      {"measurement": "Intraocular Pressure Decrease", "setting": "old DBA/2J mice; [8]", "value": 0.1, "unit": "%"},
      {"measurement": "Reduction of intraocular pressure", "setting": "old DBA/2J mice; dose 50 μg", "value": "not able to significantly reduce the intraocular pressure"},
      {"measurement": "Reduction of intraocular pressure", "setting": "old DBA/2J mice; dose 100 μg", "value": "not able to significantly reduce the intraocular pressure"}
    ]},
    {"smiles": "NC(=O)c1nn(-c2ccc(S(N)(=O)=O)cc2)c2c1CCc1sccc1-2", "note": "[Compound (XB), 1-(4′-sulphonamidophenyl)-4,5-dihydro-1H-thieno[2,3-g]indazol-3-carboxamide]", "values": [
      {"measurement": "Intraocular Pressure Decrease", "setting": "old DBA/2J mice; [1]", "value": "−0.2", "unit": "%"},
      {"measurement": "Intraocular Pressure Decrease", "setting": "old DBA/2J mice; [2]", "value": "−0.1", "unit": "%"},
      {"measurement": "Intraocular Pressure Decrease", "setting": "old DBA/2J mice; [3]", "value": 0.0, "unit": "%"},
      {"measurement": "Intraocular Pressure Decrease", "setting": "old DBA/2J mice; [4]", "value": "−0.1", "unit": "%"},
      {"measurement": "Intraocular Pressure Decrease", "setting": "old DBA/2J mice; [5]", "value": "−0.1", "unit": "%"},
      {"measurement": "Intraocular Pressure Decrease", "setting": "old DBA/2J mice; [6]", "value": 0.4, "unit": "%"},
      {"measurement": "Intraocular Pressure Decrease", "setting": "old DBA/2J mice; [7]", "value": "−0.3", "unit": "%"},
      {"measurement": "Intraocular Pressure Decrease", "setting": "old DBA/2J mice; [8]", "value": 0.0, "unit": "%"},
      {"measurement": "Reduction of intraocular pressure", "setting": "old DBA/2J mice; dose 50 μg", "value": "not able to significantly reduce the intraocular pressure"},
      {"measurement": "Reduction of intraocular pressure", "setting": "old DBA/2J mice; dose 100 μg", "value": "not able to significantly reduce the intraocular pressure"}
    ]},
    {"smiles": "Cc1ccc(Cn2nc(C(=O)NCC3CCC4CC3C4(C)C)c3c2-c2sc(C)cc2C3)cc1", "note": "(stereo not shown) [Example 3.1, N-myrtanyl-6-methyl-1-(4′-methylbenzyl)-1,4-dihydrothieno[3′,2′:4,5]cyclopenta[1,2-c]pyrazol-3-carboxamide]", "values": [
      {"measurement": "Reduction of body temperature versus the carrier", "setting": "mice; 40 mg/Kg", "value": "significantly reduce the body temperature"},
      {"measurement": "Body Temperature", "setting": "mice; 0 minutes from administration", "value": 37.9, "unit": "°C"},
      {"measurement": "Body Temperature", "setting": "mice; 15 minutes from administration", "value": 36.1, "unit": "°C"},
      {"measurement": "Body Temperature", "setting": "mice; 30 minutes from administration", "value": 34.8, "unit": "°C"},
      {"measurement": "Body Temperature", "setting": "mice; 60 minutes from administration", "value": 35.0, "unit": "°C"},
      {"measurement": "Body Temperature", "setting": "mice; 90 minutes from administration", "value": 36.7, "unit": "°C"},
      {"measurement": "Body Temperature", "setting": "mice; 120 minutes from administration", "value": 37.2, "unit": "°C"},
      {"measurement": "Intraocular Pressure Decrease", "setting": "old DBA/2J mice; [1]", "value": 15.9, "unit": "%"},
      {"measurement": "Intraocular Pressure Decrease", "setting": "old DBA/2J mice; [2]", "value": 15.0, "unit": "%"},
      {"measurement": "Intraocular Pressure Decrease", "setting": "old DBA/2J mice; [3]", "value": 12.6, "unit": "%"},
      {"measurement": "Intraocular Pressure Decrease", "setting": "old DBA/2J mice; [4]", "value": 11.7, "unit": "%"},
      {"measurement": "Intraocular Pressure Decrease", "setting": "old DBA/2J mice; [5]", "value": 23.9, "unit": "%"},
      {"measurement": "Intraocular Pressure Decrease", "setting": "old DBA/2J mice; [6]", "value": 22.8, "unit": "%"},
      {"measurement": "Intraocular Pressure Decrease", "setting": "old DBA/2J mice; [7]", "value": 19.6, "unit": "%"},
      {"measurement": "Intraocular Pressure Decrease", "setting": "old DBA/2J mice; [8]", "value": 21.7, "unit": "%"},
      {"measurement": "Reduction of intraocular pressure", "setting": "old DBA/2J mice; dose 50 μg", "value": "more effective in reducing IOP than the reference compound"},
      {"measurement": "Reduction of intraocular pressure", "setting": "old DBA/2J mice; dose 100 μg", "value": "as effective to reduce eye pressure as the reference compound WIN 55212-2"}
    ]}
  ]
}
